Source: PubChem BioAssay (NCI)
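Test compounds were applied to cells in 96-well plates for 48 hours at 5 doses. GI50 is the concentration that inhibits growth by half. TGI denotes the concentration required for complete inhibition of growth.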

Experiments:
Test in all cases: NCI tumour cell line growth inhibition, 48 h
ACHN renal = tested on: ACHN renal
UO-31 renal = tested on: UO-31 renal
HCT-116 colon = tested on: HCT-116 colon
RPMI-8226 leukemia = tested on: RPMI-8226 leukemia
SK-OV-3 ovarian = tested on: SK-OV-3 ovarian
SF-268 CNS = tested on: SF-268 CNS
HCT-15 colon = tested on: HCT-15 colon
SF-539 CNS = tested on: SF-539 CNS
TK-10 renal = tested on: TK-10 renal
K-562 leukemia = tested on: K-562 leukemia
DU-145 prostate = tested on: DU-145 prostate
M14 melanoma = tested on: M14 melanoma
HT29 colon = tested on: HT29 colon
SK-MEL-2 melanoma = tested on: SK-MEL-2 melanoma
CCRF-CEM leukemia = tested on: CCRF-CEM leukemia
OVCAR-4 ovarian = tested on: OVCAR-4 ovarian
UACC-62 melanoma = tested on: UACC-62 melanoma
SK-MEL-28 melanoma = tested on: SK-MEL-28 melanoma
NCI-H522 lung = tested on: NCI-H522 lung
MCF7 breast = tested on: MCF7 breast
MALME-3M melanoma = tested on: MALME-3M melanoma
OVCAR-3 ovarian = tested on: OVCAR-3 ovarian
NCI-H226 lung = tested on: NCI-H226 lung
RXF 393 renal = tested on: RXF 393 renal
HS 578T breast = tested on: HS 578T breast
T-47D breast = tested on: T-47D breast
SF-295 CNS = tested on: SF-295 CNS
MDA-MB-435 = tested on: MDA-MB-435
SN12C renal = tested on: SN12C renal
COLO 205 colon = tested on: COLO 205 colon
MOLT-4 leukemia = tested on: MOLT-4 leukemia
KM12 colon = tested on: KM12 colon
U251 CNS = tested on: U251 CNS
A549 NSCLC = tested on: A549 NSCLC
EKVX NSCLC = tested on: EKVX NSCLC
HCC-2998 colon = tested on: HCC-2998 colon
PC-3 prostate = tested on: PC-3 prostate
SR leukemia = tested on: SR leukemia
IGROV1 ovarian = tested on: IGROV1 ovarian
OVCAR-5 ovarian = tested on: OVCAR-5 ovarian
NCI/ADR-RES ovarian = tested on: NCI/ADR-RES ovarian
SNB-19 CNS = tested on: SNB-19 CNS
SW-620 colon = tested on: SW-620 colon
MDA-MB-231 breast = tested on: MDA-MB-231 breast
CAKI-1 renal = tested on: CAKI-1 renal
OVCAR-8 ovarian = tested on: OVCAR-8 ovarian
HOP-62 NSCLC = tested on: HOP-62 NSCLC
NCI-H460 lung = tested on: NCI-H460 lung
A498 renal = tested on: A498 renal
786-0 renal = tested on: 786-0 renal
NCI-H23 lung = tested on: NCI-H23 lung
LOX IMVI melanoma = tested on: LOX IMVI melanoma
SNB-75 CNS = tested on: SNB-75 CNS

SMILES: CC(C)(O)C1CCC(Nc2ccc3ncc(-c4cccc(C(F)(F)F)c4)n3n2)CC1 (stereo unspecified)
- GI50 (ACHN renal): 2120 nM
- TGI (ACHN renal): 12.3 µM
- GI50 (UO-31 renal): 1070 nM
- TGI (UO-31 renal): 11 µM
- GI50 (HCT-116 colon): 3.54 µM
- TGI (HCT-116 colon): 18.5 µM
- GI50 (RPMI-8226 leukemia): 266 nM
- TGI (RPMI-8226 leukemia): 790 nM
- GI50 (SK-OV-3 ovarian): 2680 nM
- TGI (SK-OV-3 ovarian): 9.19 µM
- GI50 (SF-268 CNS): 3.79 µM
- TGI (SF-268 CNS): 18.2 µM
- GI50 (HCT-15 colon): 2170 nM
- TGI (HCT-15 colon): 11.3 µM
- GI50 (SF-539 CNS): 1770 nM
- TGI (SF-539 CNS): 11.2 µM
- GI50 (TK-10 renal): 2620 nM
- TGI (TK-10 renal): 14.1 µM
- GI50 (K-562 leukemia): 2270 nM
- TGI (K-562 leukemia): 11.9 µM
- GI50 (DU-145 prostate): 3.52 µM
- TGI (DU-145 prostate): 14.8 µM
- GI50 (M14 melanoma): 1230 nM
- TGI (M14 melanoma): 4.49 µM
- GI50 (HT29 colon): 2230 nM
- TGI (HT29 colon): 12 µM
- GI50 (SK-MEL-2 melanoma): 2130 nM
- TGI (SK-MEL-2 melanoma): 4.82 µM
- GI50 (CCRF-CEM leukemia): 946 nM
- TGI (CCRF-CEM leukemia): 7.89 µM
- GI50 (OVCAR-4 ovarian): 2620 nM
- TGI (OVCAR-4 ovarian): 12.5 µM
- GI50 (UACC-62 melanoma): 1970 nM
- TGI (UACC-62 melanoma): 8.83 µM
- GI50 (SK-MEL-28 melanoma): 1600 nM
- TGI (SK-MEL-28 melanoma): 3.91 µM
- GI50 (NCI-H522 lung): 1730 nM
- TGI (NCI-H522 lung): 5.92 µM
- GI50 (MCF7 breast): 2750 nM
- TGI (MCF7 breast): 12.5 µM
- GI50 (MALME-3M melanoma): 2250 nM
- TGI (MALME-3M melanoma): 13.6 µM
- GI50 (OVCAR-3 ovarian): 2990 nM
- TGI (OVCAR-3 ovarian): 13.3 µM
- GI50 (NCI-H226 lung): 2190 nM
- TGI (NCI-H226 lung): 27 µM
- GI50 (RXF 393 renal): 1110 nM
- TGI (RXF 393 renal): 2810 nM
- GI50 (HS 578T breast): 1590 nM
- TGI (HS 578T breast): 4.67 µM
- GI50 (T-47D breast): 1500 nM
- TGI (T-47D breast): 5.13 µM
- GI50 (SF-295 CNS): 1660 nM
- TGI (SF-295 CNS): 4.67 µM
- GI50 (MDA-MB-435): 2060 nM
- TGI (MDA-MB-435): > 100 µM
- GI50 (SN12C renal): 3.17 µM
- TGI (SN12C renal): 17 µM
- GI50 (COLO 205 colon): 2620 nM
- TGI (COLO 205 colon): 21.5 µM
- GI50 (MOLT-4 leukemia): 1800 nM
- TGI (MOLT-4 leukemia): 7.02 µM
- GI50 (KM12 colon): 132 nM
- TGI (KM12 colon): 11.7 µM
- GI50 (U251 CNS): 2360 nM
- TGI (U251 CNS): 11.9 µM
- GI50 (A549 NSCLC): 3.1 µM
- TGI (A549 NSCLC): 13.2 µM
- GI50 (EKVX NSCLC): 3.82 µM
- TGI (EKVX NSCLC): > 100 µM
- GI50 (HCC-2998 colon): 3.26 µM
- TGI (HCC-2998 colon): > 100 µM
- GI50 (PC-3 prostate): 815 nM
- TGI (PC-3 prostate): 12.7 µM
- GI50 (SR leukemia): 1870 nM
- TGI (SR leukemia): 11.1 µM
- GI50 (IGROV1 ovarian): 2480 nM
- TGI (IGROV1 ovarian): 11.6 µM
- GI50 (OVCAR-5 ovarian): 2920 nM
- TGI (OVCAR-5 ovarian): > 100 µM
- GI50 (NCI/ADR-RES ovarian): 2700 nM
- TGI (NCI/ADR-RES ovarian): 19.5 µM
- GI50 (SNB-19 CNS): 4.36 µM
- TGI (SNB-19 CNS): 21.8 µM
- GI50 (SW-620 colon): 2910 nM
- TGI (SW-620 colon): 15 µM
- GI50 (MDA-MB-231 breast): 1960 nM
- TGI (MDA-MB-231 breast): 14 µM
- GI50 (CAKI-1 renal): 1670 nM
- TGI (CAKI-1 renal): 7.16 µM
- GI50 (OVCAR-8 ovarian): 2970 nM
- TGI (OVCAR-8 ovarian): 13.4 µM
- GI50 (HOP-62 NSCLC): 2370 nM
- TGI (HOP-62 NSCLC): 11.8 µM
- GI50 (NCI-H460 lung): 2700 nM
- TGI (NCI-H460 lung): 12.1 µM
- GI50 (A498 renal): 1480 nM
- TGI (A498 renal): 4.49 µM
- GI50 (786-0 renal): 1940 nM
- TGI (786-0 renal): 4.64 µM
- GI50 (NCI-H23 lung): 3.16 µM
- TGI (NCI-H23 lung): 30.2 µM
- GI50 (LOX IMVI melanoma): 1560 nM
- TGI (LOX IMVI melanoma): 4.23 µM
- GI50 (SNB-75 CNS): 1770 nM
- TGI (SNB-75 CNS): 8.99 µM
